Laboratory results published in ChEMBL document CHEMBL1201862, “PubChem BioAssay data set” (2004).
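Cultured in 96-well plates, cells were exposed to test compound for 48 hours across five concentrations. GI50 marks 50% less growth.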 Active and inactive are the calls of the source. No stated cut-off is given here; in the data, active = GI50 up to about 1.1 µM and inactive = higher.

How the values were obtained:
Assay in all cases: inhibition of tumour cell growth, NCI panel, 48 h
[1] = system: SNB-75
[2] = system: MDA-MB-435
[3] = system: PC-3
[4] = system: HOP-92
[5] = system: CCRF-CEM
[6] = system: DU-145
[7] = system: MDA-MB-231
[8] = system: SF-539
[9] = system: NCI-H23
[10] = system: UO-31
[11] = system: NCI-H460
[12] = system: HL-60
[13] = system: COLO 205
[14] = system: UACC-62
[15] = system: SF-268
[16] = system: SN12C
[17] = system: MCF7
[18] = system: MDA-N
[19] = system: IGROV-1
[20] = system: SK-MEL-2

Measured: GI50

Nc1nnc2n1C(=O)C(C1(C3=Nc4nnc(N)n4C3=O)Cc3ccccc3C1=O)=N2
inactive: [1] > 100 µM | [2] > 100 µM | [3] > 100 µM | [4] > 100 µM | [5] 48 µM | [6] > 100 µM | [7] 31.8 µM | [8] > 100 µM | [9] > 100 µM | [10] > 100 µM | [11] > 100 µM | [12] > 100 µM | [13] > 100 µM | [14] > 100 µM | [15] > 100 µM | [16] > 100 µM | [17] 40.7 µM | [18] > 100 µM

O=C1CCCCCCCCCCC1CN1CCOCC1 (stereo unspecified)
inactive: [1] 2.45 µM | [2] > 100 µM | [3] > 100 µM | [4] > 100 µM | [5] > 100 µM | [6] > 100 µM | [7] > 100 µM | [8] > 100 µM | [9] > 100 µM | [10] > 100 µM | [12] > 100 µM | [13] > 100 µM | [14] > 100 µM | [19] > 100 µM | [15] > 100 µM | [16] > 100 µM | [17] > 100 µM | [18] > 100 µM

O=C1Cc2c([nH]c3c(Cl)cccc23)-c2ccccc2N1
inactive: [1] > 100 µM | [2] > 100 µM | [3] > 100 µM | [4] 95.7 µM | [5] > 100 µM | [6] > 100 µM | [7] > 100 µM | [8] > 100 µM | [9] > 100 µM | [10] > 100 µM | [11] > 100 µM | [12] > 100 µM | [13] > 100 µM | [14] > 100 µM | [19] > 100 µM | [15] > 100 µM | [16] > 100 µM | [17] > 100 µM | [18] > 100 µM

c1cc(C[S+]2CCCC2)sc1C[S+]1CCCC1
inactive: [1] > 100 µM | [2] > 100 µM | [3] > 100 µM | [4] > 100 µM | [5] > 100 µM | [6] > 100 µM | [7] > 100 µM | [8] > 100 µM | [9] > 100 µM | [10] > 100 µM | [11] > 100 µM | [12] > 100 µM | [13] > 100 µM | [14] > 100 µM | [19] > 100 µM | [15] > 100 µM | [16] > 100 µM | [17] > 100 µM | [18] > 100 µM

O=C(NC(=S)NC(=O)c1cc(O)c(O)c(O)c1)c1cc(O)c(O)c(O)c1
inactive: [2] 7.93 µM | [3] 19.7 µM | [4] 32.7 µM | [5] 4.41 µM | [6] 25.5 µM | [20] 20.1 µM | [7] 28.8 µM | [8] 30.8 µM | [9] 23.7 µM | [10] 22.4 µM | [11] 26.5 µM | [13] 22.6 µM | [14] 23.7 µM | [15] 31.1 µM | [16] 24.7 µM | [17] 38.7 µM | [18] 2.65 µM

CCOC(=O)[C@@]1(C(C)=O)CC(C)=C(C)C[S@@+]1[O-]
inactive: [1] > 100 µM | [2] > 100 µM | [3] > 100 µM | [4] 50.2 µM | [6] > 100 µM | [20] > 100 µM | [7] > 100 µM | [9] > 100 µM | [10] > 100 µM | [11] > 100 µM | [13] > 100 µM | [14] > 100 µM | [19] > 100 µM | [15] > 100 µM | [16] > 100 µM | [17] > 100 µM | [18] > 100 µM

C=CCCC(CCC=C)(C(=O)O)C(=O)O
inactive: [1] > 100 µM | [2] > 100 µM | [3] > 100 µM | [5] > 100 µM | [6] > 100 µM | [20] > 100 µM | [7] > 100 µM | [8] > 100 µM | [9] > 100 µM | [10] > 100 µM | [11] > 100 µM | [12] > 100 µM | [13] > 100 µM | [14] > 100 µM | [19] > 100 µM | [15] > 100 µM | [16] > 100 µM | [17] > 100 µM | [18] > 100 µM

NNC(=O)c1ccc(-n2nnc(C(=O)NN)c2C(=O)NN)cc1
inactive: [2] > 100 µM | [3] > 100 µM | [4] > 100 µM | [5] > 100 µM | [6] > 100 µM | [20] > 100 µM | [7] > 100 µM | [9] > 100 µM | [10] > 100 µM | [11] > 100 µM | [12] > 100 µM | [13] > 100 µM | [16] > 100 µM | [17] > 100 µM | [18] > 100 µM

CC(C)(C)OC(=O)NCC(=O)NC1CC=CCC1NC(=O)CNC(=O)OC(C)(C)C (stereo unspecified)
inactive: [1] > 100 µM | [2] > 100 µM | [3] > 100 µM | [4] > 100 µM | [5] > 100 µM | [6] > 100 µM | [7] > 100 µM | [8] > 100 µM | [9] > 100 µM | [10] > 100 µM | [11] > 100 µM | [12] > 100 µM | [13] > 100 µM | [14] > 100 µM | [19] > 100 µM | [15] > 100 µM | [16] > 100 µM | [17] > 100 µM | [18] > 100 µM

O=C1NC(N2CCCCC2)=N/C1=C\c1ccco1
inactive: [2] > 100 µM | [3] > 100 µM | [4] > 100 µM | [5] > 100 µM | [6] > 100 µM | [20] > 100 µM | [7] > 100 µM | [8] > 100 µM | [9] > 100 µM | [10] > 100 µM | [12] > 100 µM | [13] > 100 µM | [14] > 100 µM | [19] 54.7 µM | [15] > 100 µM | [16] > 100 µM | [17] > 100 µM | [18] > 100 µM

O=[N+]([O-])c1cc2c([N+](=O)[O-])cccc2o1
inactive: [2] 18 µM | [3] 12.4 µM | [4] 17.4 µM | [5] 2.48 µM | [6] 14.7 µM | [20] 9.16 µM | [7] 12.3 µM | [8] 2.49 µM | [9] 15.8 µM | [10] 1.88 µM | [11] > 100 µM | [13] 4.57 µM | [14] 13 µM | [15] 15.7 µM | [16] 12.1 µM | [17] 3.5 µM | [18] 7.93 µM
